According to patent publication US20070128217A1 (priority 2003, published 2007):

Tests used:
[1] = test system: antibodies in sera from SARS patients (sera 1a, 1b, 2, 6, 37, 62, London, SARS-yellow, SARS-green); assay type: binding, human; design: Binding of serum 6 to linear peptides of protein X1 of SARS-CoV Urbani / Binding of serum 37 to linear peptides of protein X1 of SARS-CoV Urbani / Binding of serum 6 to looped/cyclic peptide (PEPSCAN-ELISA) / Binding of serum 37 to looped/cyclic peptide (PEPSCAN-ELISA) / Binding of serum 37 to looped/cyclic peptides of protein X1 of SARS-CoV Urbani / Binding of serum 6 to linear peptides of protein X2 / Binding of serum 37 to linear peptides of protein X2 / Binding of serum 37 to looped/cyclic peptides of protein X2 of SARS-CoV Urbani / Binding of serum 6 to linear peptides of protein M of SARS-CoV Urbani / Binding of serum 37 to linear peptides of protein M of SARS-CoV Urbani / Binding of serum 6 to looped/cyclic peptides of protein M of SARS-CoV Urbani / Binding of serum 37 to looped/cyclic peptides of protein M of SARS-CoV Urbani / Binding of serum 6 to linear peptides of protein X3 of SARS-CoV Urbani / Binding of serum 37 to linear peptides of protein X3 of SARS-CoV Urbani / Binding of serum 37 to looped/cyclic peptides of protein X3 of SARS-CoV Urbani / Binding of serum 6 to linear peptides of protein X4 of SARS-CoV Urbani / Binding of serum 37 to linear peptides of protein X4 of SARS-CoV Urbani / Binding of serum 37 to looped/cyclic peptides of protein X4 of SARS-CoV Urbani / Binding of serum 6 to linear peptides of protein X5 of SARS-CoV Urbani / Binding of serum 37 to linear peptides of protein X5 of SARS-CoV Urbani / Binding of serum 37 to looped/cyclic peptides of protein X5 of SARS-CoV Urbani / Binding of serum 6 to linear peptides of protein N of SARS-CoV Urbani / Binding of serum 37 to linear peptides of protein N of SARS-CoV Urbani / Binding of serum 6 to linear peptide (PEPSCAN-ELISA) / Binding of serum 1a to looped/cyclic peptides of protein N of SARS-CoV Urbani / Binding of serum 1b to looped/cyclic peptides of protein N of SARS-CoV Urbani / Binding of serum 2 to looped/cyclic peptides of protein N of SARS-CoV Urbani / Binding of serum 6 to looped/cyclic peptides of protein N of SARS-CoV Urbani / Binding of serum 37 to looped/cyclic peptides of protein N of SARS-CoV Urbani / Binding of serum 62 to looped/cyclic peptides of protein N of SARS-CoV Urbani / Binding of serum London to looped/cyclic peptides of protein N of SARS-CoV Urbani / Binding of serum SARS-green to looped/cyclic peptides of protein N of SARS-CoV Urbani: unit not given here
[2] = test system: control sera (pooled serum of ten healthy LUMC hospital workers; commercial negative donor pooled serum from the Dutch bloodbank); assay type: binding, human; design: Binding of Control serum LUMC to linear peptides / Binding of Control serum Blood-bank to linear peptides / Binding of Control serum LUMC to looped peptides / Binding of Control Serum Blood-Bank to Looped peptides / Binding of Control serum LUMC to linear peptides of the protein M of SARS-CoV Urbani / Binding of Control serum Blood-bank to linear peptides of the protein M of SARS-CoV Urbani / Binding of Control serum LUMC to looped peptides of the protein M of SARS-CoV Urbani / Binding of Control Serum Blood-Bank to Looped peptides of the protein M of SARS-CoV Urbani: unit not given here
[3] = test system: rabbit serum obtained by immunizing a rabbit with the SARS-CoV strain Frankfurt 1; assay type: binding; design: Binding of a rabbit serum to linear peptides / Binding of a rabbit serum to looped peptides / Rabbit serum linear peptides / Rabbit serum looped peptides / Binding of a rabbit serum to linear peptides of protein N of SARS-CoV Urbani (Rabbit serum linear peptides) / Binding of a rabbit serum to looped/cyclic peptides of protein N of SARS-CoV Urbani (Rabbit serum looped peptides): unit not given here

ENATFFIFNKLVKDP
Binding of serum 1a to linear peptides of protein X1 of SARS-CoV Urbani [1]: 0.6
Binding of serum 1a to looped/cyclic peptides of protein X1 of SARS-CoV Urbani [1]: 0.4
Binding of serum 1b to linear peptides of protein X1 of SARS-CoV Urbani [1]: 0.4
Binding of serum 1b to looped/cyclic peptides of protein X1 of SARS-CoV Urbani [1]: 0.3
Binding of serum 2 to linear peptides of protein X1 of SARS-CoV Urbani [1]: 0.5
Binding of serum 2 to looped/cyclic peptides of protein X1 of SARS-CoV Urbani [1]: 0.5
Binding of serum 6 to linear peptides of protein X1 of SARS-CoV Urbani [1]: 0.4
Binding of serum 6 to looped/cyclic peptides of protein X1 of SARS-CoV Urbani [1]: 0.4
Binding of serum 37 to linear peptides of protein X1 of SARS-CoV Urbani [1]: 0.5
Binding of serum 37 to looped/cyclic peptides of protein X1 of SARS-CoV Urbani [1]: 0.4
Binding of serum 62 to linear peptides of protein X1 of SARS-CoV Urbani [1]: 0.4
Binding of serum 62 to looped/cyclic peptides of protein X1 of SARS-CoV Urbani [1]: 0.5
Binding of serum London to linear peptides of protein X1 of SARS-CoV Urbani [1]: 0.2
Binding of serum London to looped/cyclic peptides of protein X1 of SARS-CoV Urbani [1]: 0.2
Binding of serum SARS-green to linear peptides of protein X1 of SARS-CoV Urbani [1]: 0.0
Binding of serum SARS-green to looped/cyclic peptides of protein X1 of SARS-CoV Urbani [1]: 0.2
Binding of serum SARS-yellow to linear peptides of protein X1 of SARS-CoV Urbani [1]: 0.2
Binding of serum SARS-yellow to looped/cyclic peptides of protein X1 of SARS-CoV Urbani [1]: 0.2
Binding of Control Serum Blood-Bank to Looped peptides [2]: 0.7
Binding of Control serum Blood-bank to linear peptides [2]: 0.5
Binding of Control serum LUMC to linear peptides [2]: 0.4
Binding of Control serum LUMC to looped peptides [2]: 0.4
Binding of a rabbit serum to linear peptides [3]: 0.1
Binding of a rabbit serum to looped peptides [3]: 0.5

EQWNLVIGFLFLAWI
Binding of serum 1a to linear peptides of protein M of SARS-CoV Urbani [1]: 0.7
Binding of serum 1a to looped/cyclic peptides of protein M of SARS-CoV Urbani [1]: 0.7
Binding of serum 1b to linear peptides of protein M of SARS-CoV Urbani [1]: 0.5
Binding of serum 1b to looped/cyclic peptides of protein M of SARS-CoV Urbani [1]: 0.6
Binding of serum 2 to linear peptides of protein M of SARS-CoV Urbani [1]: 0.5
Binding of serum 2 to looped/cyclic peptides of protein M of SARS-CoV Urbani [1]: 0.6
Binding of serum 6 to linear peptides of protein M of SARS-CoV Urbani [1]: 0.5
Binding of serum 6 to looped/cyclic peptides of protein M of SARS-CoV Urbani [1]: 0.4
Binding of serum 37 to linear peptides of protein M of SARS-CoV Urbani [1]: 0.4
Binding of serum 37 to looped/cyclic peptides of protein M of SARS-CoV Urbani [1]: 0.7
Binding of serum 62 to linear peptides of protein M of SARS-CoV Urbani [1]: 0.5
Binding of serum 62 to looped/cyclic peptides of protein M of SARS-CoV Urbani [1]: 0.7
Binding of serum London to linear peptides of protein M of SARS-CoV Urbani [1]: 0.4
Binding of serum London to looped/cyclic peptides of protein M of SARS-CoV Urbani [1]: 0.2
Binding of serum SARS-green to linear peptides of protein M of SARS-CoV Urbani [1]: 0.4
Binding of serum SARS-green to looped/cyclic peptides of protein M of SARS-CoV Urbani [1]: 0.4
Binding of serum SARS-yellow to linear peptides of protein M of SARS-CoV Urbani [1]: 0.3
Binding of serum SARS-yellow to looped/cyclic peptides of protein M of SARS-CoV Urbani [1]: 0.6
Binding of Control Serum Blood-Bank to Looped peptides of the protein M of SARS-CoV Urbani [2]: 0.6
Binding of Control serum Blood-bank to linear peptides of the protein M of SARS-CoV Urbani [2]: 0.5
Binding of Control serum LUMC to linear peptides of the protein M of SARS-CoV Urbani [2]: 0.4
Binding of Control serum LUMC to looped peptides of the protein M of SARS-CoV Urbani [2]: 0.7
Rabbit serum linear peptides [3]: 0.2
Rabbit serum looped peptides [3]: 0.4

ESELVIGAVIIRGHL
Binding of serum 1a to linear peptides of protein M of SARS-CoV Urbani [1]: 0.8
Binding of serum 1a to looped/cyclic peptides of protein M of SARS-CoV Urbani [1]: 0.6
Binding of serum 1b to linear peptides of protein M of SARS-CoV Urbani [1]: 0.6
Binding of serum 1b to looped/cyclic peptides of protein M of SARS-CoV Urbani [1]: 0.5
Binding of serum 2 to linear peptides of protein M of SARS-CoV Urbani [1]: 0.8
Binding of serum 2 to looped/cyclic peptides of protein M of SARS-CoV Urbani [1]: 0.6
Binding of serum 6 to linear peptides of protein M of SARS-CoV Urbani [1]: 0.3
Binding of serum 6 to looped/cyclic peptides of protein M of SARS-CoV Urbani [1]: 0.5
Binding of serum 37 to linear peptides of protein M of SARS-CoV Urbani [1]: 0.9
Binding of serum 37 to looped/cyclic peptides of protein M of SARS-CoV Urbani [1]: 0.5
Binding of serum 62 to linear peptides of protein M of SARS-CoV Urbani [1]: 0.8
Binding of serum 62 to looped/cyclic peptides of protein M of SARS-CoV Urbani [1]: 0.5
Binding of serum London to linear peptides of protein M of SARS-CoV Urbani [1]: 0.3
Binding of serum London to looped/cyclic peptides of protein M of SARS-CoV Urbani [1]: 0.2
Binding of serum SARS-green to linear peptides of protein M of SARS-CoV Urbani [1]: 0.3
Binding of serum SARS-green to looped/cyclic peptides of protein M of SARS-CoV Urbani [1]: 0.2
Binding of serum SARS-yellow to linear peptides of protein M of SARS-CoV Urbani [1]: 0.1
Binding of serum SARS-yellow to looped/cyclic peptides of protein M of SARS-CoV Urbani [1]: 0.4
Binding of Control Serum Blood-Bank to Looped peptides of the protein M of SARS-CoV Urbani [2]: 0.7
Binding of Control serum Blood-bank to linear peptides of the protein M of SARS-CoV Urbani [2]: 0.6
Binding of Control serum LUMC to linear peptides of the protein M of SARS-CoV Urbani [2]: 0.4
Binding of Control serum LUMC to looped peptides of the protein M of SARS-CoV Urbani [2]: 0.5
Rabbit serum linear peptides [3]: 0.4
Rabbit serum looped peptides [3]: 0.1

ESTQITTDTGIENAT
Binding of serum 1a to linear peptides of protein X1 of SARS-CoV Urbani [1]: 0.6
Binding of serum 1a to looped/cyclic peptides of protein X1 of SARS-CoV Urbani [1]: 0.4
Binding of serum 1b to linear peptides of protein X1 of SARS-CoV Urbani [1]: 0.4
Binding of serum 1b to looped/cyclic peptides of protein X1 of SARS-CoV Urbani [1]: 0.2
Binding of serum 2 to linear peptides of protein X1 of SARS-CoV Urbani [1]: 0.3
Binding of serum 2 to looped/cyclic peptides of protein X1 of SARS-CoV Urbani [1]: 0.1
Binding of serum 6 to linear peptides of protein X1 of SARS-CoV Urbani [1]: 0.4
Binding of serum 6 to looped/cyclic peptides of protein X1 of SARS-CoV Urbani [1]: 0.2
Binding of serum 37 to linear peptides of protein X1 of SARS-CoV Urbani [1]: 0.5
Binding of serum 37 to looped/cyclic peptides of protein X1 of SARS-CoV Urbani [1]: 0.3
Binding of serum 62 to linear peptides of protein X1 of SARS-CoV Urbani [1]: 0.5
Binding of serum 62 to looped/cyclic peptides of protein X1 of SARS-CoV Urbani [1]: 0.3
Binding of serum London to linear peptides of protein X1 of SARS-CoV Urbani [1]: 0.2
Binding of serum London to looped/cyclic peptides of protein X1 of SARS-CoV Urbani [1]: 0.2
Binding of serum SARS-green to linear peptides of protein X1 of SARS-CoV Urbani [1]: 0.2
Binding of serum SARS-green to looped/cyclic peptides of protein X1 of SARS-CoV Urbani [1]: 0.1
Binding of serum SARS-yellow to linear peptides of protein X1 of SARS-CoV Urbani [1]: 0.1
Binding of serum SARS-yellow to looped/cyclic peptides of protein X1 of SARS-CoV Urbani [1]: 0.3
Binding of Control Serum Blood-Bank to Looped peptides [2]: 0.4
Binding of Control serum Blood-bank to linear peptides [2]: 0.4
Binding of Control serum LUMC to linear peptides [2]: 0.5
Binding of Control serum LUMC to looped peptides [2]: 0.4
Binding of a rabbit serum to linear peptides [3]: 0.1
Binding of a rabbit serum to looped peptides [3]: 0.5
